Columns and labels:
Format in all cases: functional
OVCAR-4 = test: Cytotoxicity against human OVCAR4 cells assessed as cellular growth at 10 uM by SRB assay
NCI-H522 = test: Cytotoxicity against human NCI-H522 cells assessed as cellular growth at 10 uM by SRB assay
SR = test: Cytotoxicity against human SR cells assessed as cellular growth at 10 uM by SRB assay
HT-29 = test: Cytotoxicity against human HT-29 cells assessed as cellular growth at 10 uM by SRB assay
786-0 = test: Cytotoxicity against human 786-0 cells assessed as cellular growth at 10 uM by SRB assay
RPMI-8226 = test: Cytotoxicity against human RPMI8226 cells assessed as cellular growth at 10 uM by SRB assay
UACC-62 = test: Cytotoxicity against human UACC62 cells assessed as cellular growth at 10 uM by SRB assay
HOP-92 = test: Cytotoxicity against human HOP92 cells assessed as cellular growth at 10 uM by SRB assay
UACC-257 = test: Cytotoxicity against human UACC257 cells assessed as cellular growth at 10 uM by SRB assay
LOX IMVI = test: Cytotoxicity against human LOXIMVI cells assessed as cellular growth at 10 uM by SRB assay
NCI-H322M = test: Cytotoxicity against human NCI-H322M cells assessed as cellular growth at 10 uM by SRB assay
KM12 = test: Cytotoxicity against human KM12 cells assessed as cellular growth at 10 uM by SRB assay
MDA-MB-435 = test: Cytotoxicity against human MDA-MB-435 cells assessed as cellular growth at 10 uM by SRB assay
MDA-MB-468 = test: Cytotoxicity against human MDA-MB-468 cells assessed as cellular growth at 10 uM by SRB assay
HCT-15 = test: Cytotoxicity against human HCT15 cells assessed as cellular growth at 10 uM by SRB assay
HOP-62 = test: Cytotoxicity against human HOP62 cells assessed as cellular growth at 10 uM by SRB assay
PC-3 = test: Cytotoxicity against human PC3 cells assessed as cellular growth at 10 uM by SRB assay
OVCAR-5 = test: Cytotoxicity against human OVCAR5 cells assessed as cellular growth at 10 uM by SRB assay
SF-268 = test: Cytotoxicity against human SF268 cells assessed as cellular growth at 10 uM by SRB assay
SNB-75 = test: Cytotoxicity against human SNB75 cells assessed as cellular growth at 10 uM by SRB assay

**Q.** What does the source list for `O=C(Nc1nc2ccccc2s1)c1ccc(F)cc1`?
**A.** Activity (OVCAR-4): 85.42%; Activity (NCI-H522): 92.24%; Activity (SR): 98.39%; Activity (HT-29): 108.47%; Activity (786-0): 107.84%; Activity (RPMI-8226): 88.45%; Activity (UACC-62): 89.52%; Activity (HOP-92): 78.65%; Activity (UACC-257): 107.84%; Activity (LOX IMVI): 100.61%; Activity (NCI-H322M): 92.49%; Activity (KM12): 52.84%; Activity (MDA-MB-435): 100.56%; Activity (MDA-MB-468): 94.15%; Activity (HCT-15): 85.53%; Activity (HOP-62): 106.04%; Activity (PC-3): 96.56%; Activity (OVCAR-5): 100.92%; Activity (SF-268): 114.42%; Activity (SNB-75): 96.73%

**Q.** Which Activity (OVCAR-4) does the source give for `CC1(C)CC(=O)c2cc3c(N)c(C(=O)NCc4ccccc4)sc3nc2C1` here?
**A.** The Activity was 78.52%.

**Q.** What about the Activity (NCI-H522) of the same compound?
**A.** Its Activity is 92.67%.

**Q.** And the Activity (SR)?
**A.** The Activity was 116.5%.

**Q.** And the Activity (HT-29)?
**A.** The Activity was 106.09%.

**Q.** And the Activity (786-0)?
**A.** The Activity was 109.38%.

**Q.** What about the Activity (RPMI-8226) of the same compound?
**A.** The Activity was 101.22%.

**Q.** What about the Activity (UACC-62) of the same compound?
**A.** The Activity was 102.76%.

**Q.** What about the Activity (HOP-92) of the same compound?
**A.** Its Activity is 60.17%.

**Q.** What about the Activity (UACC-257) of the same compound?
**A.** Its Activity is 104.6%.

**Q.** What about the Activity (LOX IMVI) of the same compound?
**A.** The Activity was 102.22%.

**Q.** What about the Activity (NCI-H322M) of the same compound?
**A.** The Activity was 101.83%.

**Q.** What about the Activity (KM12) of the same compound?
**A.** The Activity was 105.75%.

**Q.** What about the Activity (MDA-MB-435) of the same compound?
**A.** The Activity was 91.3%.

**Q.** And the Activity (MDA-MB-468)?
**A.** The Activity was 93.1%.

**Q.** What about the Activity (HCT-15) of the same compound?
**A.** The Activity was 100.56%.

**Q.** And the Activity (HOP-62)?
**A.** The Activity was 95.84%.

**Q.** What about the Activity (PC-3) of the same compound?
**A.** The Activity was 95.51%.

**Q.** And the Activity (OVCAR-5)?
**A.** The Activity was 108.53%.

**Q.** What about the Activity (SF-268) of the same compound?
**A.** The Activity was 102.72%.

**Q.** And the Activity (SNB-75)?
**A.** Its Activity is 98.33%.
